# Experimental data: patent US11690389B2, “Red beet pigment composition” (priority 2017, dated 2023)
# Like-named read-outs stand apart in the source and are kept apart here.
# Tests used:
# [1] = system: beet root; conditions: 50 ppm; cited from earlier work
# [2] = system: red beet plants (Monty Rz and Belushi Rz); test: Field trial with several harvests: betalain accumulation during root growth after foliar spraying with egc; format: in vivo, red beet (Beta vulgaris L. spp. vulgaris); conditions: for Bn content at peak: 9 weeks after sowing as printed; for Betalains (mg kg^−1 FW) Bn / Betalains (mg kg^−1 FW) Vx / Bn:Vx: egc 360 g ha^−1
# Procedure: (§1) Field trials were conducted at the Hoejbakkegaard (latitude 55, […]; Denmark) in 2015, where three-row plots were arranged in randomized block designs with three replicates. Rainfall was complemented by irrigation throughout red beet growth to avoid water stress. Foliar applications of an ethylene generating compound (egc), 2-chloroethylphosphonic acid (CERONE® brand ETHEPHON, 39.9% active ingredient, Bayer Crop Science, Leverkusen, Germany), at a concentration of 360 g ha^−1 were performed with a CO2 backpack spaced 50 cm apart, using manual spraying equipment designed for agricultural use. Egc application began 5 weeks after sowing and continued every 3 weeks, with a total of five applications. Plants were cultivated in loamy soil using techniques recommended for cultivation and plant protection in red beet crop production.
# Trial 2. Plots consisted of 12 m-long rows, with several harvests from separate row segments performed during growth (3, 6, 9, 12, 15 and 18 weeks after sowing). For further analyses, biological replicates consisted of 20 whole beetroots harvested per plot.
# (§2) Biological replicates consisting of twenty beetroots were washed and split lengthwise. Of these, one pool of halves was ground and homogenized in a 3% sulfuric acid solution (1/1, w/w), using a Waring® two-speed commercial blender (VWR—Bie & Berntsen, Herlev, Denmark). The resulting fine homogenate was subsequently mixed with demineralized water (1/2, w/w) and vortexed. Finally, the sample was centrifuged for 20 min at 4500 rpm, and the supernatant (extract) was utilized for further analyses.
# Bn and Vx were measured spectrophotometrically. The beetroot extract was diluted to a proper concentration in 33 mM KH2PO4 (pH 6.5), and the absorption was measured at 476 nm and 538 nm for Bn and Vx, respectively, using a UV-visible spectrophotometer (Thermo Scientific Evolution™ 220, Waltham, Mass., USA). Bn and Vx concentrations were expressed in mg kg^−1 fresh weight (FW), using the corresponding absorbance, molecular weight and extinction coefficient for Bn and Vx. […]
# [3] = system: A. Mangostanus seedlings; conditions: cited from earlier work
# [4] = system: red beet plants (Monty Rz and Belushi Rz); test: Field trials harvested at a single time-point: foliar spraying of red beet plants with egc, betalain pigments and yield data of roots; format: in vivo, red beet (Beta vulgaris L. spp. vulgaris); conditions: for Betalains (g kg^−1 DM) / Betalains (mg kg^−1 FW) Bn / Betalains (mg kg^−1 FW) Vx / Betalains:TSS / Bn:Vx: egc 360 g ha^−1 foliar, roots 16 weeks after sowing
# Procedure: as §1
# Trial 1. Plants were grown in plots consisted of 4.5 m-long rows, with a single harvest from the middle part of each row performed 16 weeks after sowing.
# as §2
# Bn and Vx were measured spectrophotometrically. The beetroot extract was diluted to a proper concentration in 33 mM KH2PO4 (pH 6.5), and the absorption was measured at 476 nm and 538 nm for Bn and Vx, respectively, using a UV-visible spectrophotometer (Thermo Scientific Evolution™ 220, Waltham, Mass., USA). Bn and Vx concentrations were expressed in mg kg^−1 fresh weight (FW), using the corresponding absorbance, molecular weight and extinction coefficient for Bn and Vx.
# TSS was measured with a manual refractometer (Refracto 30PX/GS Mettler-Toledo Inc., OH, USA) operating in the 0% to 85% Brix range. The beetroot extract was filtered through 0.45 μm membrane filters, and Brix measurements were performed using 1 mL of the filtrate.
# DM was determined after samples were dried to a constant weight at 100° C. for 24 h, based on the difference in mass between the fresh and dry samples. […] was then expressed as a percentage of the dry matter.
# [5] = Belushi Rz, 3 weeks after sowing
# [6] = Belushi Rz, 6 weeks after sowing
# [7] = Belushi Rz, 9 weeks after sowing
# [8] = Belushi Rz, 12 weeks after sowing
# [9] = Belushi Rz, 15 weeks after sowing
# [10] = Belushi Rz, 18 weeks after sowing
# [11] = Monty Rz, 12 weeks after sowing
# [12] = Monty Rz, 15 weeks after sowing
# [13] = Monty Rz, 18 weeks after sowing
smiles,measurement,setting,value
"O=P(O)(O)CCCl [egc, 2-chloroethylphosphonic acid]",beta cyanin efflux,[1],promoted
same,"Bn:Vx higher in egc treated plants, average over all harvests",[2]; Belushi Rz,35%
same,"higher Bn content than untreated, average of all harvests",[2]; Belushi Rz,10%
same,"mean root Vx, less in average",[2]; Belushi Rz,20%
same,Bn content at peak,[2]; Belushi Rz,2577 mg kg^−1 FW
same,Betalains (mg kg^−1 FW) Bn,[2]; [5],945 mg kg^−1 FW
same,Betalains (mg kg^−1 FW) Vx,[2]; [5],24.3 mg kg^−1 FW
same,Bn:Vx,[2]; [5],39.0
same,Betalains (mg kg^−1 FW) Bn,[2]; [6],2577 mg kg^−1 FW
same,Betalains (mg kg^−1 FW) Vx,[2]; [6],58.4 mg kg^−1 FW
same,Bn:Vx,[2]; [6],45.7
same,Betalains (mg kg^−1 FW) Bn,[2]; [7],2144 mg kg^−1 FW
same,Betalains (mg kg^−1 FW) Vx,[2]; [7],128 mg kg^−1 FW
same,Bn:Vx,[2]; [7],17.2
same,Betalains (mg kg^−1 FW) Bn,[2]; [8],1683 mg kg^−1 FW
same,Betalains (mg kg^−1 FW) Vx,[2]; [8],157 mg kg^−1 FW
same,Bn:Vx,[2]; [8],11.1
same,Betalains (mg kg^−1 FW) Bn,[2]; [9],1442 mg kg^−1 FW
same,Betalains (mg kg^−1 FW) Vx,[2]; [9],211 mg kg^−1 FW
same,Bn:Vx,[2]; [9],6.84
same,Betalains (mg kg^−1 FW) Bn,[2]; [10],1369 mg kg^−1 FW
same,Betalains (mg kg^−1 FW) Vx,[2]; [10],286 mg kg^−1 FW
same,Bn:Vx,[2]; [10],4.85
same,"Bn:Vx higher in egc treated plants, average over all harvests",[2]; Monty Rz,17%
same,"higher Bn content than untreated, average of all harvests",[2]; Monty Rz,17%
same,"mean root Vx, less in average",[2]; Monty Rz,5%
same,Bn content at peak,[2]; Monty Rz,2867 mg kg^−1 FW
same,Betalains (mg kg^−1 FW) Bn,"[2]; Monty Rz, 3 weeks after sowing",1343 mg kg^−1 FW
same,Betalains (mg kg^−1 FW) Vx,"[2]; Monty Rz, 3 weeks after sowing",32.3 mg kg^−1 FW
same,Bn:Vx,"[2]; Monty Rz, 3 weeks after sowing",41.6
same,Betalains (mg kg^−1 FW) Bn,"[2]; Monty Rz, 6 weeks after sowing",2867 mg kg^−1 FW
same,Betalains (mg kg^−1 FW) Vx,"[2]; Monty Rz, 6 weeks after sowing",62.3 mg kg^−1 FW
same,Bn:Vx,"[2]; Monty Rz, 6 weeks after sowing",46.5
same,Betalains (mg kg^−1 FW) Bn,"[2]; Monty Rz, 9 weeks after sowing",2685 mg kg^−1 FW
same,Betalains (mg kg^−1 FW) Vx,"[2]; Monty Rz, 9 weeks after sowing",180 mg kg^−1 FW
same,Bn:Vx,"[2]; Monty Rz, 9 weeks after sowing",14.9
same,Betalains (mg kg^−1 FW) Bn,[2]; [11],2475 mg kg^−1 FW
same,Betalains (mg kg^−1 FW) Vx,[2]; [11],239 mg kg^−1 FW
same,Bn:Vx,[2]; [11],10.5
same,Betalains (mg kg^−1 FW) Bn,[2]; [12],2274 mg kg^−1 FW
same,Betalains (mg kg^−1 FW) Vx,[2]; [12],304 mg kg^−1 FW
same,Bn:Vx,[2]; [12],7.56
same,Betalains (mg kg^−1 FW) Bn,[2]; [13],2219 mg kg^−1 FW
same,Betalains (mg kg^−1 FW) Vx,[2]; [13],455 mg kg^−1 FW
same,Bn:Vx,[2]; [13],4.89
same,highest Bn:Vx,"[2]; both cultivars, 6 weeks after sowing",46
same,"root mass and diameter, untreated versus treated red beets","[2]; both cultivars, at each harvest point, 360 g egc ha−1",no significant differences
same,pigment accumulation in seedlings,[3]; 0.1 mM,did not elicit pigment accumulation
same,pigment accumulation in seedlings,[3]; 1 mM,did not elicit pigment accumulation
same,pigment accumulation in seedlings,[3]; 5 mM,seemed to have an effect
same,"Vx content of roots, untreated versus treated plants",[4]; 16-week-old plants,did not vary significantly
same,increase of Bn:Vx compared with untreated plants,[4]; Belushi Rz,36%
same,increase of betalains:TSS in average,[4]; Belushi Rz,30%
same,"increase of root Bn content compared with untreated plants, in average",[4]; Belushi Rz,20%
same,mean Bn:Vx,"[4]; Belushi Rz, egc treated beetroots",6.1
same,Betalains (g kg^−1 DM),"[4]; Field trial 1, Belushi Rz",17.4 g kg^−1 DM
same,Betalains (mg kg^−1 FW) Bn,"[4]; Field trial 1, Belushi Rz",1575 mg kg^−1 FW
same,Betalains (mg kg^−1 FW) Vx,"[4]; Field trial 1, Belushi Rz",274 mg kg^−1 FW
same,Betalains:TSS,"[4]; Field trial 1, Belushi Rz",0.126
same,Bn:Vx,"[4]; Field trial 1, Belushi Rz",5.82
same,Betalains (g kg^−1 DM),"[4]; Field trial 1, Monty Rz",21.9 g kg^−1 DM
same,Betalains (mg kg^−1 FW) Bn,"[4]; Field trial 1, Monty Rz",2166 mg kg^−1 FW
same,Betalains (mg kg^−1 FW) Vx,"[4]; Field trial 1, Monty Rz",386 mg kg^−1 FW
same,Betalains:TSS,"[4]; Field trial 1, Monty Rz",0.154
same,Bn:Vx,"[4]; Field trial 1, Monty Rz",5.79
same,Betalains (g kg^−1 DM),"[4]; Field trial 2, Belushi Rz",15.0 g kg^−1 DM
same,Betalains (mg kg^−1 FW) Bn,"[4]; Field trial 2, Belushi Rz",1584 mg kg^−1 FW
same,Betalains (mg kg^−1 FW) Vx,"[4]; Field trial 2, Belushi Rz",247 mg kg^−1 FW
same,Betalains:TSS,"[4]; Field trial 2, Belushi Rz",0.088
same,Bn:Vx,"[4]; Field trial 2, Belushi Rz",6.42
same,Betalains (g kg^−1 DM),"[4]; Field trial 2, Monty Rz",21.5 g kg^−1 DM
same,Betalains (mg kg^−1 FW) Bn,"[4]; Field trial 2, Monty Rz",2458 mg kg^−1 FW
same,Betalains (mg kg^−1 FW) Vx,"[4]; Field trial 2, Monty Rz",364 mg kg^−1 FW
same,Betalains:TSS,"[4]; Field trial 2, Monty Rz",0.132
same,Bn:Vx,"[4]; Field trial 2, Monty Rz",6.88
same,increase of Bn:Vx compared with untreated plants,[4]; Monty Rz,34%
same,increase of betalains:TSS in average,[4]; Monty Rz,37%
same,increase of root Bn content compared with untreated plants,[4]; Monty Rz,25%
same,mean Bn:Vx,"[4]; Monty Rz, egc treated beetroots",6.3
same,Bn:Vn upon ethephon treatment,[4]; both cultivars,increased substantially
same,effect on beetroot yield in tons per hectare,[4]; both cultivars,no significant effects
same,effect on root FW,[4]; both cultivars,no significant effects
same,Bn content of roots versus untreated plants,"[4]; both cultivars, 16-week-old plants",increased
same,DM (dry matter) of beetroots versus untreated roots,[4]; egc treated beetroots,lower
same,betalain content versus untreated roots,[4]; egc treated beetroots,higher
same,mean TSS versus untreated roots,[4]; egc treated beetroots,lower
